For experiment [1], the system named is Male Sprague-Dawley (CD) rats, food intake. Nature of the experiment: Two-meal feeding assay, intraperitoneal administration. The experiment is classed as in vivo, rat. The procedure: Male Sprague-Dawley (CD) rats weighing 180-200 grams (Charles River Breeding Laboratories) were acclimated to a 12 h light/dark cycle (6 a.m. to 6 p.m.) in a room kept at 22° C. They were subsequently fasted for two days, weighed, placed in individual cages, and a four-day period of meal training was begun. During this time the rats were given ground laboratory chow (Purina Lab Chow) in jars for one hour from 9:00 a.m. until 10:00 a.m., the jars were removed from 10:00 a.m. to 12:00 p.m., and placed back in the cages from 12:00 until 1:00 p.m. Under this `1-2-1` meal feeding regime most rats learn to eat approximately as much Per day during the two hours they have access to food as rats which have food ad libitum over the entire 24-hour day. On the fourth day, the rats were weighed again, and any which lost more than five grams body weight were excluded from the test. The animals were then distributed into experimental (n=5 to 6) and control groups (n=6-12). but not matched for body weight.
Peptides of the invention were suspended either in saline. if soluble, or in 1% gum arabic, if insoluble, at concentrations of 0 to 320 μg/ml/kg body weight and were administered intraperitonerally 15 min before the first meal on day 5 of meal feeding. The rats were then given their meals as they had been during the previous four days, and the food cups were weighed both before and after each meal to determine food consumption. Food intake was expressed as a mean and standard error of the mean in grams consumed or as a percent of control values for the various groups. The treated groups were compared to the control groups by t-test analysis. […]

The target of experiment [2] is T1, receptors in bovine striatum (3H-CCK-8-(SO3 H) binding, central receptor) (Bos taurus, UniProt P79266).
T1 construct: receptors in homogenized preparations of rat pancreatic cells and bovine striata; from tissue; host or cells: bovine striatum homogenate (48,000 x g pellet)
T1 sequence (P79266 1-454): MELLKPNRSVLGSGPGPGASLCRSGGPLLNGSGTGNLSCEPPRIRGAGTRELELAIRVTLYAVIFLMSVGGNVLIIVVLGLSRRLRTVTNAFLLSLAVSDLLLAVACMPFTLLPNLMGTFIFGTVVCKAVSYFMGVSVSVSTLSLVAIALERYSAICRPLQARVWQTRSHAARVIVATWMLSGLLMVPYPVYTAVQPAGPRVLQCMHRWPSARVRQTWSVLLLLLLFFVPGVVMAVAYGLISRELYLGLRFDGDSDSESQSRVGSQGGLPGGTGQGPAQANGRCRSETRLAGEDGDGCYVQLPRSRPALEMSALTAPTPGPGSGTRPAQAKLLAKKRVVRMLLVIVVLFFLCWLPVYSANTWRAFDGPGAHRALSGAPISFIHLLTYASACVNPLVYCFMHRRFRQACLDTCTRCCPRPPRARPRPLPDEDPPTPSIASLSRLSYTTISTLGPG
Nature of the experiment: In vitro receptor binding assay, bovine striatum homogenate, 3H-CCK-8-(SO3H) radioligand. To be noted: 0.15 nM radioligand, 30 min, 25° C.; read-out: Bovine Striatum IC50 (inhibition of specific 3H-CCK-8-(SO3H) binding).
Procedure: Frozen bovine striatum (approx. 5 g) and fresh rat pancreas (approx. 5 g) cleaned of fat and extraneous tissue were homogenized in HEPES buffer #1 (10 mM HEPES+130 mM NaCl+5 mM MgCl2. pH 7.4) using 35 parts buffer per 1 part tissue on a wet weight/volume basis (approx. 175 ml). The tissue was homogenized 2 x for approx. 15 sec. at 0° C. using a Polytron homogenizer at a setting of 6. The tissue was isolated by centrifugation at 48,000 x g for 10 min. at 0° C. The resulting tissue pellet was resuspended in HEPES buffer #2 (10 mM HEPES+130 mM NaCl+5 mM MgCl2 +1 mg/L phenylmethanesulfonyl fluoride (PMSF)+200 mg/L Bacitracin): 1 part striatal tissue (original wet weight) per 80 parts buffer and 1 part pancreas tissue (original wet weight) per 70 parts buffer.
Incubation was initiated by combining various concentrations of native CCK-8 or peptides of formula I, II and III with ^3 H-CCK-8-(SO3 H) (final conc.=0.15 nM) and tissue homogenate (striatum 0.26 mg protein in 2 ml final volume; pancreas 0.165 mg protein in 1 ml final volume). Samples were incubated for 30 min. at 25° C. and the incubation terminated by pouring the mixture onto a pre-wet Whatman GF/B filter on a Sandbeck Vacuum Filtration Manifold. The incubation tubes were washed with 2×3 ml of ice-cold HEPES Buffer #2 and the wash filtered through the GF/B filter. The filter was air dried for 10 min. and then placed in a scintillation vial with 12 ml of Beckman HP/b Ready-Solv scintillation cocktail. The vials were shaken for 2 hours and then counted using a Beckman Model 7800 liquid scintillation spectrometer. Non-specific binding was determined in the presence of 1 micromole native CCK-8 and subtracted from all samples to determine specific binding. The concentration of ^3 peptide necessary to inhibit 50% of total specific H-CCK-8-(SO3 H) binding (IC50 value) was determined by log-probit analysis.

For experiment [3], the target named is T2, receptors in rat pancreas (3H-CCK-8-(SO3 H) binding) (Rattus norvegicus, UniProt P30551).
T2 construct: receptors in homogenized preparations of rat pancreatic cells and bovine striata; from tissue; host or cells: rat pancreas homogenate (48,000 x g pellet)
T2 sequence (P30551 1-444): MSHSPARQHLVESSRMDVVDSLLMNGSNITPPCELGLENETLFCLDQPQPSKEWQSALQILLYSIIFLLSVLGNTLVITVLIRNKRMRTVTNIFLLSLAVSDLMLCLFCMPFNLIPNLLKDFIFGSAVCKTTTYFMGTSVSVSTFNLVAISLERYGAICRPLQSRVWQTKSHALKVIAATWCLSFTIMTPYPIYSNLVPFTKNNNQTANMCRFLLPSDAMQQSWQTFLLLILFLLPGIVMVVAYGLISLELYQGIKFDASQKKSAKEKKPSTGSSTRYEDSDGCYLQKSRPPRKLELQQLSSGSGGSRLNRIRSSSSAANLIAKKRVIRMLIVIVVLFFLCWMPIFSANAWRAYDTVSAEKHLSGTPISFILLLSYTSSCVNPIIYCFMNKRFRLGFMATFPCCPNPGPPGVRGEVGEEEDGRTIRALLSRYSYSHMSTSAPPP
Nature of the experiment: In vitro receptor binding assay, rat pancreas homogenate, 3H-CCK-8-(SO3H) radioligand. To be noted: 0.15 nM radioligand, 30 min, 25° C.; read-out: Rat Pancreas IC50 (inhibition of specific 3H-CCK-8-(SO3H) binding). The procedure: This strategy was utilized to minimize central nervous system side effects by identifying peptides with peripheral receptor selectivity. […] The tissue was homogenized 2 x for approx. 15 sec. at 0° C. using a Polytron homogenizer at a setting of 6. The tissue was isolated by centrifugation at 48,000 x g for 10 min. at 0° C. […] Samples were incubated for 30 min. at 25° C. and the incubation terminated by pouring the mixture onto a pre-wet Whatman GF/B filter on a Sandbeck Vacuum Filtration Manifold. The incubation tubes were washed with 2×3 ml of ice-cold HEPES Buffer #2 and the wash filtered through the GF/B filter. The filter was air dried for 10 min. and then placed in a scintillation vial with 12 ml of Beckman HP/b Ready-Solv scintillation cocktail. The vials were shaken for 2 hours and then counted using a Beckman Model 7800 liquid scintillation spectrometer.

The mark [4] stands for this setting: 32 microgm/Kg i.p., 15 min before first meal, mean ± SEM.

The term IC50 denotes the point on the concentration scale where inhibition reaches its midpoint.

SMILES strings stand for the structures. Where a SMILES comes first, the peptide text is derived from it. [ ]: non-standard residue; d: D form. The star is where a group is joined. Thr(SO3H) = C[C@@H](OS(=O)(=O)O)[C@H](N)C(=O)O; sY = N[C@@H](Cc1ccc(OS(=O)(=O)O)cc1)C(=O)O; N(CH2CH2NHAc)Gly = CC(=O)NCCNCC(=O)O; NMeF = CN[C@@H](Cc1ccccc1)C(=O)O; Nle = CCCC[C@H](N)C(=O)O; For = O=C*

On to `CCCC[C@H](NC(=O)[C@H](Cc1ccc(OS(=O)(=O)O)cc1)NC(C)=O)C(=O)NCC(=O)N[C@@H](Cc1c[nH]c2ccccc12)C(=O)N[C@@H](CCCC)C(=O)N[C@H](C(=O)N(C)[C@@H](Cc1ccccc1)C(N)=O)[C@@H](C)OS(=O)(=O)O` [Example 13, Ac-Tyr-(SO3 H)-Nle-Gly-Trp-Nle-Thr(SO3 H)-N-methyl-Phe-NH2] (Ac-[sY][Nle]GW[Nle][Thr(SO3H)][NMeF]-NH2), for which the “Food Intake 1st Meal” value in experiment [1] (1 microgm/Kg i.p.) is given as 36 ± 4 % of Control; in experiment [1] (3 microgm/Kg i.p.), 23 ± 13 % of Control; in experiment [1] (10 microgm/Kg i.p.), 13 ± 1 % of Control; in experiment [1] (16 microgm/Kg i.p.), 27 ± 17 % of Control; in experiment [1] (setting [4]), 21 ± 12 % of Control. Further, the “Food Intake 2nd Meal” value was 71 ± 13 % of Control in experiment [1] (1 microgm/Kg i.p.); 59 ± 6 % of Control in experiment [1] (3 microgm/Kg i.p.); 62 ± 8 % of Control in experiment [1] (10 microgm/Kg i.p.); 45 ± 11 % of Control in experiment [1] (16 microgm/Kg i.p.); 52 ± 13 % of Control in experiment [1] (32 microgm/Kg i.p., mean ± SEM).
As for `CCCC[C@H](NC(=O)[C@H](Cc1ccc(OS(=O)(=O)O)cc1)NC(C)=O)C(=O)N[C@H](C)C(=O)N[C@@H](Cc1c[nH]c2ccccc12)C(=O)N[C@@H](CCSC)C(=O)N[C@H](C(=O)N(C)[C@@H](Cc1ccccc1)C(N)=O)[C@@H](C)OS(=O)(=O)O` [Example 4, Ac-Tyr(SO3 H)-Nle-(D)Ala-Trp-Met-Thr(SO3 H)-n-Methyl-Phe-NH2] (Ac-[sY][Nle][dA]WM[Thr(SO3H)][NMeF]-NH2), the results for the 50% inhibitory concentration (IC50) in experiment [2] and in experiment [3] were 100 nM and 44 nM, respectively. Moreover, the “Food Intake 1st Meal” value in experiment [1] (setting [4]) was 5 ± 5 % of Control. Moreover, the “Food Intake 2nd Meal” value in experiment [1] (32 microgm/Kg i.p., mean ± SEM) is on record as 79 ± 13 % of Control.
For the compound `CSCC[C@H](NC(=O)[C@H](Cc1ccc(OS(=O)(=O)O)cc1)NC(=O)CNCCNC(C)=O)C(=O)NCC(=O)N[C@@H](Cc1cn(C=O)c2ccccc12)C(=O)N[C@@H](CCSC)C(=O)N[C@H](C(=O)N(C)[C@@H](Cc1ccccc1)C(N)=O)[C@@H](C)OS(=O)(=O)O` [Example 7, Ac-Aeg-Tyr(SO3 H)-Met-Gly-Trp(For)-Met-Thr(SO3 H)-N-methyl-Phe-NH2] (H-[N(CH2CH2NHAc)Gly][sY]MGW(For)M[Thr(SO3H)][NMeF]-NH2), the “Food Intake 1st Meal” value in experiment [1] (setting [4]) is recorded as 17 ± 9 % of Control. The “Food Intake 2nd Meal” value in experiment [1] (32 microgm/Kg i.p., mean ± SEM) is 95 ± 16 % of Control.
Regarding `CSCC[C@H](NC(=O)[C@H](Cc1c[nH]c2ccccc12)NC(=O)CNC(=O)[C@H](Cc1ccc(OS(=O)(=O)O)cc1)NC(C)=O)C(=O)N[C@H](C(=O)N(C)[C@@H](Cc1ccccc1)C(N)=O)[C@@H](C)OS(=O)(=O)O` [Example 14, Ac-Tyr(SO3 H)-Gly-Trp-Met-Thr(SO3 H)-N-methyl-Phe-NH2] (Ac-[sY]GWM[Thr(SO3H)][NMeF]-NH2), the “Food Intake 1st Meal” value in experiment [1] (3 microgm/Kg i.p.) is reported as 86 ± 16 % of Control; in experiment [1] (setting [4]), 36 ± 8 % of Control; in experiment [1] (320 microgm/Kg i.p.) it was 4 ± 5 % of Control. Besides, the “Food Intake 2nd Meal” value is 120 % of Control in experiment [1] (3 microgm/Kg i.p.); 141 ± 9 % of Control in experiment [1] (32 microgm/Kg i.p., mean ± SEM); 121 ± 3 % of Control in experiment [1] (320 microgm/Kg i.p.).
Take `CSCC[C@H](NC(=O)[C@H](Cc1ccc(OS(=O)(=O)O)cc1)NC(C)=O)C(=O)NCC(=O)N[C@@H](Cc1cn(C=O)c2ccccc12)C(=O)N[C@@H](CCSC)C(=O)N[C@H](C(=O)N(C)[C@@H](Cc1ccccc1)C(N)=O)[C@@H](C)OS(=O)(=O)O` [Example 1, Ac-Tyr(SO3 H)-Met-Gly-Trp(For)-Met-Thr(SO3 H)-N-methyl-Phe-NH2] (Ac-[sY]MGW(For)M[Thr(SO3H)][NMeF]-NH2): the half-maximal inhibitory concentration (IC50) in experiment [2] is 1000 nM; in experiment [3], 9.4 nM. Further, the “Food Intake 1st Meal” value in experiment [1] (setting [4]) is 23 ± 13 % of Control. Besides, the “Food Intake 2nd Meal” value in experiment [1] (32 microgm/Kg i.p., mean ± SEM) was 55 ± 10 % of Control.
For the compound `CSCC[C@H](NC(=O)[C@H](Cc1ccc(OS(=O)(=O)O)cc1)NC(C)=O)C(=O)N[C@@H](C)C(=O)N[C@@H](Cc1c[nH]c2ccccc12)C(=O)N[C@@H](CCSC)C(=O)N[C@H](C(=O)N(C)[C@@H](Cc1ccccc1)C(N)=O)[C@@H](C)OS(=O)(=O)O` [Example 6, Ac-Tyr(SO3 H)-Met-Ala-Trp-Met-Thr(SO3 H)-N-methyl-Phe-NH2] (Ac-[sY]MAWM[Thr(SO3H)][NMeF]-NH2), the half-maximal inhibitory concentration (IC50) came out at 1750 nM in experiment [2] and 100 nM in experiment [3]. For the same compound, the “Food Intake 1st Meal” value in experiment [1] (setting [4]) was 14 ± 6 % of Control. In experiment [1] (32 microgm/Kg i.p., mean ± SEM), the “Food Intake 2nd Meal” value is recorded as 114 ± 9 % of Control.
On to `CSCC[C@H](NC(=O)[C@H](Cc1ccc(OS(=O)(=O)O)cc1)NC(C)=O)C(=O)N[C@@H](C)C(=O)N[C@@H](Cc1cn(C=O)c2ccccc12)C(=O)N[C@@H](CCSC)C(=O)N[C@H](C(=O)N(C)[C@@H](Cc1ccccc1)C(N)=O)[C@@H](C)OS(=O)(=O)O` [Example 5, Ac-Tyr(SO3 H)-Met-Ala-Trp(For)-Met-Thr(SO3 H)-N-methyl-Phe-NH2] (Ac-[sY]MAW(For)M[Thr(SO3H)][NMeF]-NH2), for which the 50% inhibitory concentration (IC50) in experiment [2] was 4100 nM; in experiment [3], 4200 nM. Further, the “Food Intake 1st Meal” value in experiment [1] (setting [4]) is reported as 70 ± 2 % of Control. Also, the “Food Intake 2nd Meal” value in experiment [1] (32 microgm/Kg i.p., mean ± SEM) is on record as 133 ± 9 % of Control.

Source of the values: patent US5013722A, “Cholecystokinin analogs for controlling appetite” (Hoffmann-LaRoche Inc., priority 1989, dated 1991).
